Here are results for 1 compound from patent US20110269825A1, “Modified Thromboxane A2 Receptor Promoter Sequence” (priority 2008, published 2011).

Holding throughout (format): cell-based, human
One assay concerns WT1. Nature of the assay: Immunoblot analysis of WT1 expression in HEL cells. The following applies: PMA 100 nM over 48 h. Here is the method:
(§1) The expression of WT1, Sp1, Egr1, NF-E2, GATA-1 and Ets-1 proteins in HEL cells was confirmed by western blot analysis. Briefly, whole cell protein was resolved by SDS-PAGE (10% acrylamide gels) and transferred to polyvinylidene difluoride (PVDF) membrane according to standard methodology. Membranes were screened using anti-WT1, anti-NF-E2, anti-Sp1, anti-Egr1, anti-GATA-1 or anti-Ets-1 sera in 5% non fat dried milk in 1×TBS (0.01 M Tris/HCl, 0.1 M NaCl) for 2 h at room temperature followed by washing and screening using goat anti-rabbit horseradish peroxidase (sc-2204) followed by chemiluminescence detection, as described by the supplier (Roche Applied Science). For PMA studies, HEL cells were pre-incubated for the indicated amount of time with 100 nM PMA, with 10 μM PD98059, with 100 nM PMA plus 10 μM PD98059 or, as a control, with vehicle [0.1% (v/v) DMSO]. Whole cell protein (60 μg per lane) was resolved by SDS-PAGE (10% acrylamide gels) and transferred to polyvinylidene difluoride (PVDF) membrane according to standard methodology. […] Cells were harvested 48 hr post-transfection and aliquots ([…]) were analysed by SDS-PAGE/western blot analysis. As a positive control for hTF expression, […] of a commercial control Tissue-Factor Biomass was also analysed. […]
For orientation: A western blot detects proteins with antibodies after separation by electrophoresis.

The next assay has as its system Sp1. The assay is described as follows: Immunoblot analysis of Sp1 expression in HEL cells. The following applies: PMA 100 nM over 48 h. The protocol: as §1
The test system of the next assay is Egr1. The assay is described as follows: Immunoblot analysis of Egr1 expression in HEL cells. The following applies: PMA 100 nM, 0-48 h.
Assay [1] relates to Prm1-directed luciferase expression. The assay is described as follows: Effect of PMA, PD98059 or Vitamin D3 on Prm1-directed luciferase expression in HEL cells. The protocol: HEL and EA.hy 926 cells were co-transfected with the various pGL3Basic-recombinant plasmids (2 mg), encoding firefly luciferase, along with pRL-TK (200 ng), encoding renilla luciferase, using DMRIE-C® transfection reagent. HEK293, WI-38, and 1° hAoSMCs were co-transfected with the pGL3Basic-recombinant plasmids (2 mg), along with pRL-TK (200 ng), using Effectene transfection reagent. In all cases, cells co-transfected with pRL-TK (200 ng) in the presence of either the pGL3Control vector (firefly luciferase gene under the control of the SV40 promoter; 2 mg) or the promoter-less pGL3Basic empty vector (2 mg), which served as positive and negative controls, respectively. […] Relative firefly to renilla luciferase activity (arbitrary units) was calculated as a ratio and was expressed in relative luciferase units (RLU). To investigate the effect of over-expression of exon 5 (+ or −) or KTS (+ or −) isoforms of WT1 on Prm1-directed gene expression, HEL cells were co-transfected with either pGL3b:Prm1 or pGL3b:Prm1D (1.5 μg) plus 200 ng of pRL-TK along with either pcDNA3:WT1 (+/+), pcDNA3:WT1 (+/−), pcDNA3:WT1 (−/+), pcDNA3:WT1 (−/−) (0.5 μg), or as a control, pcDNA3 (0.5 μg). […] The plasmid pCMV5-NAB1, containing the entire coding sequence for NAB1, was generously donated by Dr. Gerald Thiel, University of Saarland Medical Center, Homburg, Germany, and has been described previously (Thiel et al., 2000). To investigate the effect of over-expression of NAB1 on the PMA-mediated induction of Prm1-directed gene expression, HEL cells were transiently co-transfected with pGL3b:Prm1 (2 μg) plus pRL-TK (200 ng) along with either pCMV5 (control) or pCMV:NAB1 (1 μg).

The test system of another assay is TPα mRNA. The assay is described as follows: RT-PCR and Southern blot analysis of TPα mRNA expression in HEL cells. The following applies: PMA 100 nM, 2 to 48 h. Here is the method: Total RNA was isolated from HEL 92.1.7 cells (5×10^6 approximately) using TRIzol reagent (Invitrogen Life Technologies). RT-PCR was carried out with DNase 1-treated total RNA using oligonucleotide primers to specifically amplify TPα and glyceraldehyde-3-phosphate dehydrogenase (GAPDH) mRNA sequences, as previously described (Miggin et al., 1998). The following primers were used: […]
Following agarose gel electrophoresis, PCR products were transferred to Biodyne® B positively-charged nylon membrane (PaII) using standard methodology (Sambrook et al., 1989). Southern blot analysis of the RT-PCR products was carried out using oligonucleotide probes (5′ end-labelled with biotin) specific for TPα (Kin 583: 5′[Btn][…] GAAG3′, SEQ ID NO:80) and GAPDH (Kin 584: 5′[Btn][…]3′, SEQ ID NO:81] mRNA sequences and detection was carried out using the Detector™ HRP Chemiluminescent Blotting Kit (KPL), as described by the manufacturer.

Structures are written as SMILES. Where “and” joins values, the source holds several entries; their conditions need not be identical. Identical values can stand only once.

Description for Egr1: The expression of WT1, Sp1, Egr1, NF-E2, GATA-1 and Ets-1 proteins in HEL cells was confirmed by western blot analysis. Briefly, whole cell protein was resolved by SDS-PAGE (10% acrylamide gels) and transferred to polyvinylidene difluoride (PVDF) membrane according to standard methodology. […] For PMA studies, HEL cells were pre-incubated for the indicated amount of time with 100 nM PMA, with 10 μM PD98059, with 100 nM PMA plus 10 μM PD98059 or, as a control, with vehicle [0.1% (v/v) DMSO]. Whole cell protein (60 μg per lane) was resolved by SDS-PAGE (10% acrylamide gels) and transferred to polyvinylidene difluoride (PVDF) membrane according to standard methodology.

With `CCCCCCCCCCCCCC(=O)O[C@@H]1[C@@H](C)[C@@]2(O)[C@@H](C=C(CO)C[C@]3(O)C(=O)C(C)=C[C@@H]23)[C@@H]2C(C)(C)[C@]12OC(C)=O` [PMA, phorbol 12-myristate 13-acetate], the WT1 protein expression entry with WT1 is “did not substantially alter the expression of the WT1 doublet”. Further, the Sp1 protein expression entry in the assay on Sp1 is given as “did not result in appreciable changes in the expression of Sp1”. The Egr1 protein expression entry with Egr1 is given as “significant increase in Egr1 expression from 1 to 16 h”. Also, the “Time of incubation to significantly increased Prm1-directed luciferase activity” value in assay [1] (PMA 100 nM, 0-48 h) is recorded as at most 4 h. Moreover, in assay [1] (PMA 100 nM, 16 h, vs vehicle), the “Increase in Prm1-directed luciferase expression” value is 4 fold and 4.3 fold. Also, in assay [1] (PMA alone 100 nM, 16 h), the “Effect on luciferase expression directed by the Prm1K sub-fragment” value is “neither PMA alone (p=0.4721) nor PMA plus PD98059 (p=0.2693) had any significant effect”. Further, the “TPα mRNA expression” value in the assay on TPα mRNA is listed as “time-dependent, sustained increase in TPα mRNA expression”.
